Test results published in patent publication US7776882B2, “2-amino-3,4-dihydro-quinoline derivatives useful as inhibitors of β-secretase (BACE)” (priority 2006, dated 2010).
Values joined by “and” are separate entries in the source; they are usually repeats but may differ in a detail not shown here. Equal entries are not always repeated. Where two headings read alike, the source gives them in different places.

How the values were obtained:
Assay type in all cases: biochemical
[1] = target: T1, β-secretase (BACE) (Homo sapiens, UniProt P56817); experiment: In Vitro BACE FS1 % Inhibition Assay (Example 10); settings: FS1 substrate, values below about 25% (including negative) within noise; for % Inhibition (Example 10) @ 0.3 μM / inhibition at 0.3 µM: 0.3 μM compound; for % Inhibition (Example 10) @ 1 μM / inhibition at 1 µM: 1 μM compound; for % Inhibition (Example 10) @ 3 μM / inhibition at 3 µM: 3 μM compound
T1 construct: purchased Panvera
T1 sequence (P56817 46-501): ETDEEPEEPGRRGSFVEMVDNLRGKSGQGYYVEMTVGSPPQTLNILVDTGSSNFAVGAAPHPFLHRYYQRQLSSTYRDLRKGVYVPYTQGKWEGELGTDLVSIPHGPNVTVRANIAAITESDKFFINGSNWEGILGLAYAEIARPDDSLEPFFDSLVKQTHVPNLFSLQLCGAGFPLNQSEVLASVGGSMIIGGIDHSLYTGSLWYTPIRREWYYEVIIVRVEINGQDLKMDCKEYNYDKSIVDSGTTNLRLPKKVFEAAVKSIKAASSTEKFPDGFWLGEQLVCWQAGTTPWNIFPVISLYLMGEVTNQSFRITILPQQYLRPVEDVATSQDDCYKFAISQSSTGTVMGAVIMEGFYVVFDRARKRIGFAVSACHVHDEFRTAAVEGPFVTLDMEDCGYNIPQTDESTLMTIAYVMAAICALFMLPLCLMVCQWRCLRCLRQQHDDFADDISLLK
Method: (§1) The following assay buffers were prepared and used in this assay: (1) enzyme assay buffer (0.05 M sodium acetate, pH5, 0.1% PEG8000 (w/v)), (2) substrate assay buffer (0.05 M sodium acetate, pH5), and (3) compound vehicle (30% DMSO in 50 mM HEPES, pH 7.4).
(§2) The FS1-substrate stock solution was prepared in DMSO as a 10 mg/mL solution. The FS1-substrate working solution was prepared by diluting the 10 mg/mL stock solution with substrate assay buffer to a final concentration of 300 μg/mL. The β-secretase (BACE) working solution was prepared by diluting a 0.83 mg/mL BACE stock solution with enzyme assay buffer to a final concentration of 4 μg/mL.
Test compounds were dissolved in DMSO to 10 mM. Compounds were further diluted in vehicle to various concentrations in the range of 405 μM to 4.05 μM (13.5×final compound concentration in screening plate).
(§3) The screening procedure for this assay was as follows: 15 μL of BACE working solution was pipetted into each well of a 96-well plate. To each well was then pipetted 2 μL of test compound at the selected concentration. Test compound and BACE were then mixed with a pipettor and incubated for 20 min at room temperature. To each well was then added 10 μL of the FS1 substrate working solution. The plates were then incubated for 1 hour at room temperature. The fluorescence for each well was then measured on an LJL analyst (Ex 360 nm/Em 530 nm).
The procedure for the blank (negative control) was as follows. 15 μL of assay buffer was pipetted into each well to be used as a blank control. To each well was then added 2 μL of vehicle and 10 μL of FS1-substrate working solution. The plates were then incubated for 1 hour at room temperature. The fluorescence was measured on an LJL analyst (Ex 360 nm/Em 530 nm).
(§4) The procedure for the positive control was as follows: 15 μL of BACE working solution was pipetted into each well to be used as a positive control. To each well was then pipetted 2 μL of vehicle. Vehicle and BACE were then mixed with a pipettor and incubated for 20 min at room temperature. To each well was then added 10 μL of the FS1 substrate working solution. The plates were then incubated for 1 hour at room temperature. The fluorescence (Fl) was then measured on an LJL analyst (Ex 360 nm/Em 530 nm).
For test compounds, % inhibition was determined at each concentration as follows: […]

[2] = target: T1, β-secretase (BACE); experiment: In Vitro BACE Assay, Ki (Example 11); settings: FS1 substrate 50 μM, Km 24 μM
Method: The following reagents were used in this assay: sodium acetate, PEG8000 (Sigma), DMSO, HEPES, FS1 substrate [R(AedensE)[…]-(DabcylK)R], β-secretase (BACE) (Panvera), and 96-well plate (HE microplate, Molecular Devices).
as §1, §2
Test compounds were dissolved in DMSO at 10 mM.
as §3, with “The” for “The screening”, “The” for “The plates were then incubated for 1 hour at room temperature. The”, “a Polarstar fluorometer” for “an LJL analyst”, “390” for “360”, “520 nm) for 20 min at room temperature, reading fluorescence at 1 min intervals.” for “530 nm).”
as §4, with “The” for “The plates were then incubated for 1 hour at room temperature. The”, “fluorescence” for “fluorescence (Fl)”, “a Polarstar fluorometer” for “an LJL analyst”, “390” for “360”, “520 nm) for 20 min at room temperature, reading fluorescence at 1 min intervals.” for “530 nm).”
For test compounds, Ki inhibition was determined as follows: For each compound concentration and positive control, rate of cleavage of substrate (Vi, where i=compound concentration in μM) was determined as Δ Fluorescence/Δ time (min). Cleavage rates (Vi) were plotted as a function of inhibitor concentration in μM [I]. The Ki was then determined by fitting the following equation to the graph of [I] vs Vi Y=aVmax/(50+24*(1+X/Ki)),

[3] = target: T2, human BACE-1 (Homo sapiens, UniProt P56817); experiment: In Vitro BACE Assay run by CEREP (Example 14); settings: recombinant enzyme, 60 min at 37° C., pH 4.5; for inhibition at 1 µM / % Inhibition 1 μM: 1 μM compound
T2 construct: purchased CEREP (contract assay) 761-B
T2 sequence (P56817 46-501): as above
Method: This assay was run by CEREP (Catalog Ref. 761-B, Referred to SOP No. 1C131; ERMOLIEFF, J., LOY, J. A., KOELSCH, G. and TANG, J., Proteolytic activation of recombinant pro-memapsin 2 (pro-BACE) studied with new fluorogenic substrates, Biochemistry, (2000) Vol. 39, p. 12450).
More specifically the assay, run at 50 μL in a 96 well plate, evaluated the effect of test compound on the activity of the human BACE-1 quantified by measuring the formation of Mca-S-E-V-N-L-NH2 from Mca-S-E-V-N-L-D-A-E-F-R-K(Dnp)-R-R-NH2, using a recombinant enzyme.
The test compound, reference compound or water (control) was added to a buffer containing 0.09 M sodium acetate (pH 4.5) and 0.25 μg BACE-1. Compound interference with the fluorimetric detection method due to autofluorescence was then checked by measurements at the wavelengths defined to evaluate the enzyme activity. Thereafter, the reaction was initiated by adding 7.5 μM of the substrate Mca-S-E-V-N-L-D-A-E-F-R-K(Dnp)-R-R-NH2 and the mixture was incubated for 60 min at 37° C. For control basal measurement, the substrate was omitted from the reaction mixture. Immediately after the incubation, the fluorescence intensity emitted by the reaction product Mca-S-E-V-N-L-NH2 was measured at λex=320 nm and λem=405 nm using a microplate reader (Ultra, Tecan). The standard inhibitory reference compound was OM99-2, which was tested in each experiment at several concentrations to obtain an inhibition curve from which its IC50 value was calculated.

Nc1nc2ccc(Oc3ccccc3)cc2cc1CCC(=O)NC12CC3CC(CC(C3)C1)C2 [compound 2]
% Inhibition (Example 10) @ 0.3 μM [1]: 45% | % Inhibition (Example 10) @ 1 μM [1]: 78% | % Inhibition (Example 10) @ 3 μM [1]: 107% | Ki ([2]; read-out: Ki (μM) (Example 11)): 0.23 µM

CC1CCCC(NC(=O)CCc2cc3cc(Oc4ccccc4)ccc3nc2N)C1 (centres unmarked) [compound 3]
inhibition at 0.3 µM [1]: 58% | inhibition at 1 µM [1]: 89% | inhibition at 3 µM [1]: 115% | Ki ([2]; Ki (μM) (Example 11)): 0.49 µM

CC(C)=CCCC(C)=CCNC(=O)CCc1cc2cc(Oc3ccccc3)ccc2nc1N [compound 13]
inhibition at 0.3 µM [1]: 2% | inhibition at 1 µM [1]: 42% | inhibition at 3 µM [1]: 88% | Ki ([2]; Ki (μM) (Example 11)): 0.64 µM

Nc1nc2ccc(Oc3ccccc3)cc2cc1C(CCC(=O)NC12CC3CC(CC(C3)C1)C2)C1CCCCC1 (centres unmarked) [compound 15]
% Inhibition (Example 10) @ 0.3 μM [1]: 43% | % Inhibition (Example 10) @ 1 μM [1]: 58% | % Inhibition (Example 10) @ 3 μM [1]: 78% | Ki ([2]; read-out: Ki (μM) (Example 11)): 0.28 µM

CN(C(=O)CCC(c1cc2cc(Oc3ccccc3)ccc2nc1N)C1CCCCC1)C1CCCCC1 (centres unmarked) [compound 16]
inhibition at 0.3 µM [1]: 29% | inhibition at 1 µM [1]: 27% | inhibition at 3 µM [1]: 78% | Ki ([2]; Ki (μM) (Example 11)): 0.44 µM | inhibition at 0.3 µM ([3]; 0.3 μM compound): 15% | inhibition at 1 µM [3]: 46% | IC50 [3]: 0.7 µM

CN(C(=O)CCC(c1cc2cc(Oc3ccccc3)ccc2nc1N)C1CCOCC1)C1CCCCC1 (centres unmarked) [compound 23]
% Inhibition (Example 10) @ 0.3 μM ([1]; 0.3 µM): 34% and 64% | inhibition at 1 µM [1]: 88% | % Inhibition (Example 10) @ 1 μM ([1]; 1 µM): 93% | inhibition at 3 µM [1]: 127% | % Inhibition (Example 10) @ 3 μM ([1]; 3 µM): 125% | Ki ([2]; Ki (μM) (Example 11)): 0.12 µM and 0.31 µM | inhibition at 1 µM [3]: 78% | IC50 [3]: 0.42 µM

Nc1nc2ccc(Oc3ccccc3)cc2cc1C(CCC(=O)NC12CC3CC(CC(C3)C1)C2)C1CCOCC1 (centres unmarked) [compound 24]
% Inhibition (Example 10) @ 0.3 μM [1]: 56% | % Inhibition (Example 10) @ 1 μM [1]: 103% | % Inhibition (Example 10) @ 3 μM [1]: 132% | Ki ([2]; read-out: Ki (μM) (Example 11)): 0.066 µM

CN(C(=O)CC[C@H](c1cc2cc(Oc3ccccc3)ccc2nc1N)C1CCOCC1)C1CCCCC1 [compound 25]
inhibition at 0.3 µM [1]: 83% | inhibition at 1 µM [1]: 114% | inhibition at 3 µM [1]: 126% | Ki ([2]; Ki (μM) (Example 11)): 0.16 µM

Nc1nc2ccc(Oc3ccccc3)cc2cc1C(CCC(=O)N(Cc1ccccn1)C1CCCCC1)C1CCOCC1 (centres unmarked) [compound 60]
inhibition at 1 µM [3]: 83% | IC50 [3]: 0.32 µM

CN(CCC(c1cc2cc(Oc3ccccc3)ccc2nc1N)C1CCCCC1)C1CCCCC1 (centres unmarked) [compound 61]
% Inhibition 1 μM [3]: 15%

Nc1nc2ccc(Oc3ccccc3)cc2cc1C(CCC(=O)N(CN1CCCC1)C1CCCCC1)C1CCOCC1 (centres unmarked) [compound 64]
inhibition at 1 µM [3]: 83% | IC50 [3]: 0.19 µM

Nc1nc2ccc(Oc3ccccc3)cc2cc1C(CCC(=O)N(CCN1CCOCC1)C1CCCCC1)C1CCOCC1 (centres unmarked) [compound 65]
inhibition at 1 µM [3]: 69% | IC50 [3]: 0.85 µM

CC(C)(C)OCCN(C(=O)CCC(c1cc2cc(Oc3ccccc3)ccc2nc1N)C1CCOCC1)C1CCCCC1 (centres unmarked) [compound 66]
inhibition at 1 µM [3]: 86% | IC50 [3]: 0.47 µM

Nc1nc2ccc(Oc3ccccc3)cc2cc1C(CCC(=O)N(CC1CC1)C1CCCCC1)C1CCOCC1 (centres unmarked) [compound 67]
inhibition at 1 µM [3]: 90% | IC50 [3]: 0.41 µM

Nc1nc2ccc(Oc3ccccc3)cc2cc1C(CCC(=O)N(CCO)CC1CC1)C1CCOCC1 (centres unmarked) [compound 68]
inhibition at 1 µM [3]: 41% | IC50 [3]: 1.5 µM

CC(C)(C)CN(Cc1ccccn1)C(=O)CCC(c1cc2cc(Oc3ccccc3)ccc2nc1N)C1CCOCC1 (centres unmarked) [compound 69]
inhibition at 1 µM [3]: 69% | IC50 [3]: 0.67 µM

Cn1ccnc1CN(CCC(C)(C)C)C(=O)CCC(c1cc2cc(Oc3ccccc3)ccc2nc1N)C1CCCCC1 (centres unmarked) [compound 70]
% Inhibition 1 μM ([3]; 1 µM): 10%

Cn1ccnc1CN(CCC(C)(C)C)C(=O)CCC(c1cc2cc(Oc3ccccc3)ccc2nc1N)C1CCCCC1 (centres unmarked) [compound 71]
% Inhibition 1 μM ([3]; 1 µM): 73%

Cn1ccnc1CN(CCC(C)(C)C)C(=O)CCC(c1cc2cc(Oc3ccccc3)ccc2nc1N)C1CCCCC1 (centres unmarked) [compound 72]
% Inhibition 1 μM ([3]; 1 µM): 81%

C=CCCC(c1cc2cc(Oc3ccccc3)ccc2nc1N)C1CCCCC1 (centres unmarked) [compound 509]
% Inhibition 0.3 μM ([3]; 0.3 μM compound): 11% | % Inhibition 1 μM [3]: −3%
